Experimental data reported in patent US10072012B2, “Process for crystalline pemetrexed dipotassium salt” (SHILPA MEDICARE LIMITED, priority 2013, dated 2018).

Assay: Handling and storage stability of crystalline Form-SP9
Assay type: physicochemical
Settings: handling and storage for longer time; solid state
Text: Crystalline Form-SP9 retains its stoichiometry even on exposure to uncontrolled environmental conditions. This stable form thus, offers various advantages in terms of storage, shelf life and favorable impurity profile.

stability of the crystal form (morphology and physicochemical characteristics): very stable crystal lattice
Structure (SMILES): Nc1nc2[nH]cc(CCc3ccc(C(=O)N[C@@H](CCC(=O)[O-])C(=O)[O-])cc3)c2c(=O)[nH]1.[K+].[K+] [Form-SP9, Pemetrexed dipotassium]
